Experimental data published in patent US7816321B2, “Thymosin β4 derivatives and use thereof” (Beijing Northland Biotech. Co., Ltd., priority 2005, dated 2010).
“And” between values parts separate entries of the source, which are not always exact repeats. Equal values may be shown once.

Columns and labels:
Assay type in all cases: in vivo
[1] = system: rat models with left anterior descending branch coronary artery ligation and reperfusion; experiment: Rat coronary artery ligation and reperfusion model: cell death and heart function (summary); conditions: continuous injection for one month
Description: 60 adult rats were subjected to coronary artery deligation to imitate the onset of heart disease and to obtain rat models with left anterior descending branch coronary artery ligation and reperfusion.
(§1) Rats were administrated with xylazine 5 mg/kg by intramuscular injection; anesthetized with ketamine 50 mg/kg, and rat anterior chest wall was disinfected with iodine tincture and alcohol; after completely dry, a sterile operation towel was put on, the operative site was exposed, and the operation was conducted under complete aseptic condition. The skin of rat anterior chest wall was incised, and the 3rd to the 6th ribs were cut to expose thoracic cavity, the lung was pushed aside, the heart vesicle was opened to expose the heart. Blood vessel from the origin of left anterior descending branch coronary artery to 3 mm was ligated with 6-0 polypropylene ligature wire and NELATION, and the reperfusion was conducted 1 hour later. After non-hemorrhage was confirmed, the excised ribs were sutured with sternum, and then skin was sutured. After operation, the rats were administrated with 3 mg/kg/day gentamicin for 3 days by intramuscular injection for prevention of infection.

[2] = system: rat left anterior descending branch coronary artery reperfusion models (acute myocardial infarction); experiment: Rat heart ischemia model: thickness of anterior left ventricular wall by ultrasonic cardiogram; conditions: for thickness of anterior left ventricular wall: 10 μg/rat/day intraperitoneal injection
Description: as §1
3. Comparison of Degree of Heart Ventricle Fibrosis by Using Histological Pictures

[3] = system: rat epidermis lesion models; experiment: Rat epidermis lesion model: wound length by computer image analysis (smearing on epidermis)
Description: 30 adult rats were cut on their epidermis to obtain rat epidermis lesion model.
(§2) Rats were administrated with xylazine 5 mg/kg by intramuscular injection; anesthetized with ketamine 50 mg/kg, and rat posterior skin was disinfected with iodine tincture and alcohol; after completely dry, a sterile operation towel was put on, the operative site was exposed, and the operation was conducted under complete aseptic condition. The rat posterior skin was incised to form 3 cm incision.

[4] = system: rat left anterior descending branch coronary artery reperfusion models (acute myocardial infarction); experiment: Rat heart ischemia model: degree of heart ventricle fibrosis by histological pictures (Masson's trichrome); conditions: 56th day after administration; 10 μg/rat/day intraperitoneal injection
Description: as §1

[5] = system: rat cornea alkali burn models; experiment: Rat cornea alkali burn model: recovery of corneal epithelium by image analysis
Excerpt: The corneas of 30 adult rats were burned with 1N NaOH to obtain rat corneal lesion models.
After 4 days, eyeballs were exenterated, fixed with 10% formaldehyde, embedded with paraffin and continuously sectioned along pupil optic nerve plane, the obtained sections were used for collection and analysis of recovery of corneal epithelium by image analysis system.

[6] = system: rabbit cornea alkali burn models; experiment: Rabbit cornea alkali burn model: recovery of corneal epithelium; conditions: 5th day; 500 μg/ml eyedrops, 4 times per day
Excerpt: Eyeballs were exenterated separately after 1 and 5 days, fixed with 10% formaldehyde, embedded with paraffin, and continuously sectioned along pupil optic nerve plane, the obtained sections were stained and used for collection and analysis of recovery of corneal epithelium by image analysis system.

[7] = system: rat epidermis lesion models; experiment: Rat epidermis lesion model: wound healing observation after topical administration by nebulizer
Description: as §2

[8] = 100 μg/ml, topical by nebulizer, 4 times per day

## Tβ4: Native thymosin β4, polypeptide with 43 amino acids as shown in SEQ ID NO:1; positive control (SDKPDMAEIEKFDKSKLKKTETQEKNPLPSKETIEQEKQAGES; listed as Homo sapiens)
[1]
  cell death in the injured rat heart: Limited cells died
[1]; several weeks after the onset of heart disease
  heart functions: heart functions were improved
[2]; 0th day, before administration, rat heart ischemia model
  thickness of anterior left ventricular wall, basal value: 0.2378±0.018
[2]; 14th day after administration
  thickness of anterior left ventricular wall: 0.1919±0.012 and 0.1215±0.013
[2]; 28th day after administration
  thickness of anterior left ventricular wall: 0.1233±0.0071
[2]; 56th day after administration
  thickness of anterior left ventricular wall: 0.1232±0.0057
[3]; 0th day, before administration, 3 cm incision of posterior skin
  wound length, basal value: 3.07±0.18
[3]; 5th day, smeared on epidermis 4 times per day, 5 μg/day
  wound length: 1.62±0.13
[3]; smeared for 5 days, 30 adult rats
  length of wounds smaller than the blank control: 50%
[4]
  ratio of fibrosis part of myocardium based on total myocardium of left ventricle: 23.15±2.9% and 22.91±2.3%
[5]; 0th day, before administration, 1N caustic soda burn
  recovery of corneal epithelium (image analysis), basal value: 4.76±0.18
[5]; 4th day after administration, eyedrops 30 μl/rat, 4 times per day
  recovery of corneal epithelium (image analysis): 7.03±0.13
[5]; dropped in eyes for 4 days, corneas burned with 1N NaOH
  recovery of injured corneas: recovered completely
[6]
  layers of epithelial cells appeared: 1-2 layers
  recovery condition of corneal epithelium: all injured corneal epithelial cells were recovered and became normal
[7]; [8]
  wound healing time: 5.8 ± 0.91 days
  wound inflammatory reaction (severity): relatively slight inflammatory reactions
  wound inflammatory reaction, time persisted: 1 to 2 days
[7]; two weeks after administration, 100 μg/ml by nebulizer
  scar appearance: relatively fine linear scars with relatively smooth surface
[7]; two weeks after administration, 100 μg/ml by nebulizer, 4 times per day
  scar size: 1.9±0.23 cm
